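Each compound was tested at five concentrations against cells in 96-well plates for 48 hours. Here, GI50 denotes the concentration required for 50% inhibition of growth.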 Active and inactive are the calls of the source. No stated cut-off is given here; in the data, active = GI50 up to about 1.1 µM and inactive = higher.
Tests used:
Experiment in all cases: DTP human tumour cell line panel, 48 h
[1] = tested on: SK-OV-3
[2] = tested on: UACC-62
[3] = tested on: NCI-H460
[4] = tested on: DMS-273
[5] = tested on: OVCAR-4
[6] = tested on: SF-295
[7] = tested on: CCRF-CEM
[8] = tested on: MOLT-4
[9] = tested on: SF-268
[10] = tested on: Malme-3M
[11] = tested on: RPMI-8226
[12] = tested on: LXFL 529
[13] = tested on: HT-29
[14] = tested on: A498
[15] = tested on: KM12
[16] = tested on: SK-MEL-28
[17] = tested on: HOP-92
[18] = tested on: MDA-MB-435
[19] = tested on: PC-3
[20] = tested on: Hs-578T

Measured: GI50

O=[N+]([O-])c1ccc(C(O)/C(=N/O)c2nc3ccc(Cl)cc3nc2O)cc1 (stereo not drawn)
inactive: [1] > 100 µM | [2] > 100 µM | [3] > 100 µM | [4] > 100 µM | [5] > 100 µM | [6] > 100 µM | [7] > 100 µM | [8] > 100 µM | [9] > 100 µM | [10] > 100 µM | [11] > 100 µM | [12] > 100 µM | [13] > 100 µM | [14] > 100 µM | [15] > 100 µM

CCOP(=O)(C/C(=N/NC(C)(C)C)C(=O)Nc1nc2ccc(C)cc2s1)OCC
inactive: [1] > 100 µM | [2] > 100 µM | [3] > 100 µM | [4] > 100 µM | [5] > 100 µM | [6] > 100 µM | [7] > 100 µM | [8] > 100 µM | [9] > 100 µM | [16] > 100 µM | [10] > 100 µM | [12] > 100 µM | [13] > 100 µM | [14] > 100 µM | [15] > 100 µM

CCOC(=O)CCCO
inactive: [1] > 100 µM | [2] > 100 µM | [3] > 100 µM | [6] > 100 µM | [7] > 100 µM | [8] > 100 µM | [9] > 100 µM | [16] > 100 µM | [10] > 100 µM | [11] > 100 µM | [17] > 100 µM | [12] > 100 µM | [13] > 100 µM | [14] > 100 µM | [15] > 100 µM

C[C@@H]1O[C@@H](O[C@H]2CC[C@]3(C=O)[C@H]4CC[C@]5(C)[C@@H](c6ccc(=O)oc6)CC[C@]5(O)[C@@H]4CC[C@]3(O)C2)[C@H](O)[C@H](O)[C@H]1O[C@@H]1O[C@H](CO)[C@@H](O)[C@H](O)[C@H]1O [HELLEBRIN]
active: [18] 0.0107 µM | [1] 0.0226 µM | [2] 0.027 µM | [3] 0.00771 µM | [4] 0.00775 µM | [5] 0.00743 µM | [6] 0.0112 µM | [7] 0.00445 µM | [8] 0.00302 µM | [9] 0.0375 µM | [16] 0.0375 µM | [11] 0.0375 µM | [17] 0.0402 µM | [13] 0.0212 µM | [14] 0.0284 µM | [19] 0.00938 µM | [20] 0.00653 µM | [15] 0.0521 µM

O=C(Nc1cccc2c1C(=O)c1c(NC(=O)c3ccccc3)ccc(Nc3cccc4c3C(=O)c3ccccc3C4=O)c1C2=O)c1ccccc1
inactive: [1] > 100 µM | [2] > 100 µM | [3] > 100 µM | [4] > 100 µM | [5] > 100 µM | [7] > 100 µM | [8] > 100 µM | [9] > 100 µM | [16] > 100 µM | [10] > 100 µM | [11] > 100 µM | [12] > 100 µM | [14] > 100 µM | [15] > 100 µM

O=[N+]([O-])c1ccc(N2N=C(c3c(O)ccc4ccccc34)CC2c2ccc(Cl)cc2)c([N+](=O)[O-])c1 (stereo not drawn)
inactive: [18] 25.6 µM | [1] 27.5 µM | [2] 7.13 µM | [3] 29.9 µM | [5] 64.9 µM | [6] 4.59 µM | [7] 11.1 µM | [8] 10.1 µM | [9] 29.5 µM | [16] 46.9 µM | [10] 15.2 µM | [11] 15.3 µM | [17] 26 µM | [13] 20.1 µM | [14] 22.6 µM | [19] 6.4 µM | [20] 27.4 µM | [15] 5.65 µM

Cc1cc(C)n(-c2nc(-n3nc(C)cc3C)nc(-n3nc(C)cc3C)n2)n1
inactive: [18] > 100 µM | [1] > 100 µM | [2] > 100 µM | [3] 33.2 µM | [5] > 100 µM | [6] > 100 µM | [7] 62.7 µM | [8] > 100 µM | [9] > 100 µM | [16] > 100 µM | [10] 37.2 µM | [11] 93.1 µM | [17] > 100 µM | [13] > 100 µM | [14] > 100 µM | [19] > 100 µM | [20] 50.5 µM | [15] > 100 µM

Cc1ccc(SSCCCS(=O)O)cc1
inactive: [1] 49.2 µM | [2] 27.2 µM | [3] 63.1 µM | [4] 24.5 µM | [5] 43.8 µM | [6] 32.8 µM | [8] 15.2 µM | [9] 12.2 µM | [16] 45.7 µM | [10] > 100 µM | [12] 27.7 µM | [13] 41.6 µM | [14] 28.1 µM | [15] 28.8 µM

O=C1NC2(O)c3ccccc3C(=O)C2(O)N1c1ccccc1 (stereo not drawn)
inactive: [1] > 100 µM | [2] > 100 µM | [3] > 100 µM | [5] > 100 µM | [6] > 100 µM | [7] > 100 µM | [8] > 100 µM | [9] > 100 µM | [16] > 100 µM | [10] > 100 µM | [11] > 100 µM | [17] > 100 µM | [12] > 100 µM | [13] > 100 µM | [15] > 100 µM

COC(=O)C1OC(O[C@H]2CC[C@]3(C)[C@H]4CC=C5[C@@H]6CC(C)(C)CC[C@]6(C(=O)OC6OCC(O)C(O)C6OC6OC(C)C(OC7OCC(O)C(O)C7O)C(OC7OCC(O)(CO)C7O)C6O)[C@H](O)C[C@@]5(C)[C@]4(C)CC[C@H]3C2(C)C)C(O)C(O)C1O (stereo partly drawn)
inactive: [18] 1.89 µM | [1] 12.2 µM | [2] 2.51 µM | [3] 16.3 µM | [5] 4.98 µM | [6] 4.43 µM | [7] 14.9 µM | [8] 5.13 µM | [9] 10 µM | [16] 2.2 µM | [10] 4.14 µM | [11] 3.86 µM | [17] 1.83 µM | [13] 2.54 µM | [14] 1.76 µM | [19] 3.85 µM | [20] 11.9 µM | [15] 2.88 µM

CO/N=C1\CC(C)N2C(=O)C(C(C)C)NC(=O)C(NC(=O)c3c4nc5c(C(=O)NC6C(=O)NC(C(C)C)C(=O)N7C(C)CC(O)C7C(=O)N(C)CC(=O)N(C)C(C(C)C)C(=O)OC6C)ccc(C)c5oc-4c(C)c(=O)c3N)C(CO)OC(=O)C(C)N(C)C(=O)CN(C)C(=O)C12 (stereo not drawn)
inactive: [1] 3.66 µM | [5] 5.82 µM | [6] 1.13 µM | [14] 1.13 µM | [19] 1.95 µM
active: [18] 0.824 µM | [2] 0.29 µM | [3] 0.098 µM | [7] 0.0703 µM | [8] 0.222 µM | [9] 0.986 µM | [16] 0.791 µM | [10] 0.374 µM | [11] 0.0984 µM | [17] 0.753 µM | [13] 0.526 µM | [20] 0.906 µM | [15] 0.877 µM

COC(=O)c1ccccc1/C=C1\Cc2ccc3c(c2C1=O)CCC3
inactive: [18] > 100 µM | [1] > 100 µM | [2] > 100 µM | [3] > 100 µM | [5] > 100 µM | [6] > 100 µM | [7] > 100 µM | [8] > 100 µM | [9] > 100 µM | [16] > 100 µM | [10] > 100 µM | [11] > 100 µM | [17] > 100 µM | [13] > 100 µM | [14] > 100 µM | [19] > 100 µM | [20] > 100 µM | [15] > 100 µM

NCCN(CCN)/[N+]([O-])=N/O
inactive: [18] > 100 µM | [1] > 100 µM | [2] > 100 µM | [3] 69.3 µM | [5] > 100 µM | [6] > 100 µM | [7] 43.6 µM | [8] > 100 µM | [9] > 100 µM | [16] > 100 µM | [10] > 100 µM | [11] > 100 µM | [17] > 100 µM | [13] > 100 µM | [14] > 100 µM | [19] > 100 µM | [20] > 100 µM | [15] > 100 µM

NNC(=O)Nc1nc2ccc(NN)cc2[nH]1
inactive: [18] 21.5 µM | [1] 40.2 µM | [2] 21.1 µM | [3] 27.4 µM | [5] 34.3 µM | [6] 47.2 µM | [7] 14.6 µM | [8] 11.6 µM | [9] 37.2 µM | [16] 19 µM | [10] 59.6 µM | [11] 7 µM | [17] 19.7 µM | [13] 34.5 µM | [14] 23.6 µM | [19] 34.4 µM | [20] 33.7 µM | [15] 19.5 µM

C=CCN1C2Cc3cc(OC)c(OC)cc3C1Cc1cc(OC)c(OC)cc12
inactive: [3] > 100 µM | [5] > 100 µM | [6] 53.8 µM | [7] > 100 µM | [8] > 100 µM | [9] > 100 µM | [16] > 100 µM | [10] > 100 µM | [11] > 100 µM | [12] > 100 µM | [13] 69 µM | [14] > 100 µM | [15] > 100 µM

CCCCn1c(N)c(-c2nc3ccccc3o2)sc1=S
inactive: [18] 12.6 µM | [1] 22.7 µM | [2] 11.2 µM | [3] 15.8 µM | [5] 5.81 µM | [6] 12.6 µM | [7] 32.8 µM | [8] 43 µM | [9] 16.4 µM | [16] 18.8 µM | [10] 16.3 µM | [11] 21.7 µM | [17] 45.5 µM | [13] 27.4 µM | [14] 31.8 µM | [19] 23.4 µM | [20] 26.9 µM | [15] 12.5 µM

Reference: ChEMBL document CHEMBL1201862, “PubChem BioAssay data set” (2004)
